pIC50: −log10 of the molar value. Like-named read-outs stand apart in the source and are kept apart here.

The target of one test is KRasG12C (Homo sapiens (Human), UniProt P01116, G12C). Put plainly: MS-based assay (% modification for a range of compound concentrations and time points). Type of test: biochemical. The settings on record: internally determined, non-labeled ligand; read-out: (kinact/KI)probe, second order rate constant for modification of KRasG12C.
Test [1] deals with KRasG12C (M1-K169, biotinylated on the N-terminus) (Homo sapiens (Human), UniProt P01116, G12C). Nature of the test: Covalent competition assay (scintillation proximity assay, competition with radiolabeled covalent probe Compound B). Type of test: binding. A digest of the protocol:
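Biotinylated KRasG12C (M1-K169):GDP incubated 2 h with agitation with serially diluted compounds premixed with a fixed concentration of radiolabeled covalent probe; scintillation proximity read-out of competition for covalent modification. Buffer 20 mM Tris-HCl pH 7.5, 150 mM NaCl, 0.1 mM MgCl2, 0.01% Tween-20. IC50 from 4-parameter fit.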

Where [2] appears, read: in vitro KRASG12C activity, 10 nM KRasG12C:GDP, 25 nM radio-ligand and 475 nM unlabelled ligand, incubated 2 hours, read-out: Covalent Competition Assay IC50.

With `C=CC(=O)Nc1ccc(-n2c(C)c(-c3c(C)ccc4[nH]ncc34)c3cccnc32)c(F)c1` [Compound A, N-(3-fluoro-4-(2-methyl-3-(5-methyl-1H-indazol-4-yl)-1H-pyrrolo[2,3-b]pyridin-1-yl)phenyl)acrylamide, reference compound], on KRasG12C, the kinact/KI was ~5000 M⁻¹ s⁻¹. Besides, the pIC50 in test [1] (covalent competition SPA assay, KRASG12C, read-out: IC50, titration of the non-labelled version of the probe) was 6.30.
For the compound `C=CC(=O)N1CC2(CC(n3nc(-c4ccc(-n5ccc(N)n5)nc4)c(-c4c(Cl)c(C)cc5[nH]ncc45)c3C)C2)C1` [Example 53, 1-(6-(3-(6-(3-amino-1H-pyrazol-1-yl)pyridin-3-yl)-4-(5-chloro-6-methyl-1H-indazol-4-yl)-5-methyl-1H-pyrazol-1-yl)-2-azaspiro[3.3]heptan-2-yl)prop-2-en-1-one], in test [1] (setting [2]), the pIC50 was 6.49.
Still for that read-out and setting: in the case of `C=CC(=O)N1CC2(CC(n3nc(-c4cc5cn(C)nc5cn4)c(-c4c(Cl)c(C)cc5[nH]ncc45)c3C)C2)C1` [Example 77] it was 6.71; in that of `C=CC(=O)N1CC2(CC(n3nc(-c4ccc(OC)nc4)c(-c4c(Cl)c(C)cc5[nH]ncc45)c3C)C2)C1` [Example 78a, 1-(6-(4-(5-chloro-6-methyl-1H-indazol-4-yl)-3-(6-methoxypyridin-3-yl)-5-methyl-1H-pyrazol-1-yl)-2-azaspiro[3.3]heptan-2-yl)prop-2-en-1-one], 6.67; in that of `C=CC(=O)N1CC2(CC(n3nc(-c4ccc(N)nc4)c(-c4c(Cl)c(C)cc5[nH]ncc45)c3C)C2)C1` [Example 79a, 1-(6-(3-(6-aminopyridin-3-yl)-4-(5-chloro-6-methyl-1H-indazol-4-yl)-5-methyl-1H-pyrazol-1-yl)-2-azaspiro[3.3]heptan-2-yl)prop-2-en-1-one], 7.04.
The same measure, in the same setting: in the case of `C=CC(=O)N1CC2(CC(n3nc(-c4cccnc4)c(-c4c(Cl)c(C)cc5[nH]ncc45)c3CC#N)C2)C1` [Example 88] it was 4.87.
`C=CC(=O)N1CC2(CC(n3nc(-c4ccc5c(cnn5C)c4)c(-c4cc(O)ccc4Cl)c3C)C2)C1` [Example 94, 1-(6-(4-(2-chloro-5-hydroxyphenyl)-5-methyl-3-(1-methyl-1H-indazol-5-yl)-1H-pyrazol-1-yl)-2-azaspiro[3.3]heptan-2-yl)prop-2-en-1-one]: the pIC50 in test [1] (setting [2]) was 5.64.

These data come from US11702409B2, “Pyrazolyl derivatives useful as anti-cancer agents” (NOVARTIS AG, priority 2019, dated 2023).
